What was measured:
HeLa cells = assay: Time-lapse video microscopy, mitotic duration, arrest and exit; format: cell-based, human; conditions: 200 μM CW069, 100 μM monastrol
Method: HSET is known to antagonize the activity of the related kinesin, KSP, during spindle formation ([Mountain et al., 1999]). Therefore, we used time-lapse video microscopy to investigate whether CW069-treated cells transit mitosis with normal kinetics, and whether the characteristic mitotic arrest induced by inhibition of KSP ([Mayer et al., 1999]) could be suppressed by cotreatment with CW069. To this end, HeLa cells were treated with either DMSO control (0.2%), 200 μM CW069, 100 μM monastrol, or CW069+monastrol for 60 min before being imaged every 5 min for a further 360 min. Mitotic duration (MD) was defined as the period of time between when the cells began to round up and the onset of anaphase. No statistical difference was recorded between control cells and cells treated with 200 μM CW069 (MD 55 ± 7 and 53 ± 6 min, respectively, Figures 6A, 6B, and S7). […] This effect was reversed to a large extent by cotreatment of CW069 with monastrol. […] This is consistent with observations previously reported for KSP-depleted cells ([Mountain et al., 1999]). […] Cells were synchronized in G2-M by incubation at 37°C and 5% CO2 for 24 hr with 9 μM of the CDK1 inhibitor RO-3306 (Merck). Cells were released by removal of the RO-3306 and four washings of 10 min each, at 37°C, with prewarmed culture media + 10% FBS. N1E-115 cells were transfected with siRNA (Supplemental Experimental Procedures) and imaged from 6 hr after transfection. Some RO-3306-synchronized cells were released with 200 μM CW069, 100 μM monastrol, or 0.2% DMSO, and imaging started immediately or 1 hr after treatment. Imaging was carried out for 24 hr, or for 4 hr in the case of the CW069/monastrol cotreatment. Imaging was conducted every 5 min in a humidified chamber with 37°C and 5% CO2, using a Nikon Eclipse TE2000-E microscope, and analyzed with NIS-Elements software (Nikon, Tokyo, Japan). The morphology of cells in mitosis and the mitotic fate (bipolar division, multipolar division, or cell death) were analyzed.

N1E-115 cells = assay: Time-lapse microscopy, mitotic fate; format: cell-based, mouse
Method: Therefore, we interrogated cell division in N1E-115 cells using time-lapse imaging for further validation of target engagement. Treatment with 200 μM CW069 did indeed induce multipolar anaphase formation in N1E-115 cells (48%; Figure 5A) compared with the DMSO control (0%; Figure 5A). […] This is consistent with a previous report that catastrophic aneuploidy associated with multipolar divisions prompted cell death ([Kwon et al., 2008]). In order to corroborate selective inhibition of HSET by CW069 in cells, we treated HSET siRNA-depleted cells with 200 μM CW069 and compared them with DMSO/control siRNA-, DMSO/HSET siRNA-, and CW069/control siRNA-treated cells (Figure 5D).
Cells were synchronized in G2-M by incubation at 37°C and 5% CO2 for 24 hr with 9 μM of the CDK1 inhibitor RO-3306 (Merck). Cells were released by removal of the RO-3306 and four washings of 10 min each, at 37°C, with prewarmed culture media + 10% FBS. N1E-115 cells were transfected with siRNA (Supplemental Experimental Procedures) and imaged from 6 hr after transfection. Some RO-3306-synchronized cells were released with 200 μM CW069, 100 μM monastrol, or 0.2% DMSO, and imaging started immediately or 1 hr after treatment. Imaging was carried out for 24 hr, or for 4 hr in the case of the CW069/monastrol cotreatment. Imaging was conducted every 5 min in a humidified chamber with 37°C and 5% CO2, using a Nikon Eclipse TE2000-E microscope, and analyzed with NIS-Elements software (Nikon, Tokyo, Japan). The morphology of cells in mitosis and the mitotic fate (bipolar division, multipolar division, or cell death) were analyzed.

[1] = >200 cells that entered mitosis >60 min after treatment

`O=C(O)c1cc(I)ccc1NC(=O)[C@H](Cc1ccccc1)NCc1ccccc1` [CW069] was tested, and the “Mitotic Arrest (%)” value (HeLa cells; [1]) was 4%, the “Mitotic Exit (%)” value (HeLa cells; [1]) was 96% and the “Mitotic duration (MD)” value (HeLa cells; rounding up to anaphase onset, cells transiting mitosis) was 53 ± 6 min. The “fate of daughter cells after aberrant divisions” value (N1E-115 cells; N1E-115, 200 μM) was “the majority of daughter cells underwent apoptosis”, the multipolar anaphase formation (N1E-115 cells; N1E-115, 200 μM CW069, DMSO control 0% (Figure 5A)) was 48% and the multipolar anaphases (N1E-115 cells; N1E-115, siRNA plus 200 μM CW069 or DMSO, DMSO/control siRNA 11% (Figure 5D)) was 57%.
